The IC50 is the concentration needed to halve the response being measured.

Test [1] addresses T1, NLRP3 (Homo sapiens, UniProt Q96P20). Put plainly: THP-1 cells pyroptosis assay. In kind it is cell-based. Details: Seed THP-1 cells (25,000cells/well) containing 1.0 μg/ml LPS in 40 μl of RPMI medium; host or cells: THP-1 cells. The note with it: LPS 1 μg/ml, nigericin 5 μM, resazurin readout. The procedure: The cells were routinely passaged and grown to confluency (˜10^6 cells/ml). On the day of the experiment, THP-1 cells were harvested and resuspended into RPMI medium (without FBS). The cells were then counted and viability (>90%) checked by Trypan blue (Sigma #T8154). […] To this diluted cell solution was added LPS (Sigma #L4524) to give a 1 μg/ml Final Assay Concentration (FAC). 40 μl of the final preparation was aliquoted into each well of a 96-well plate. The plate thus prepared was used for compound screening.
The following method step-by-step assay was followed for compound screening. • 1. […] Incubate for 3 hrs at 37° C., 5% CO2 • 4. Add 5 μl nigericin (Sigma #N7143) (FAC 5 μM) to all wells • 5. Incubate for 1 hr at 37° C., 5% CO2 • 6. At the end of the incubation period, spin plates at 300×g for 3 mins and remove supernatant • 7. Then add 50 μl of resazurin (Sigma #R7017) (FAC 100 μM resazurin in RPMI medium without FBS) and incubate plates for a further 1-2 hrs at 37° C. and 5% CO2 • 8. […] IC50 data is fitted to a non-linear regression equation (log inhibitor vs response-variable slope 4-parameters)

For test [2], the target named is T1, NLRP3. Put plainly: Human whole blood IL-1β release assay. In kind it is cell-based. Further details: Human whole blood in Li-heparin tubes was obtained from healthy donors from a volunteer donor panel; from tissue; host or cells: human whole blood from healthy donors. Conditions: LPS 1 μg/ml, nigericin 10 μM, IL-1β AlphaLisa, read-out: HWB IC50. How it is done:
For systemic delivery, the ability to inhibit NLRP3 when the compounds are present within the bloodstream is of great importance. For this reason, the NLRP3 inhibitory activity of a number of compounds in human whole blood was investigated in accordance with the following protocol.
Human whole blood in Li-heparin tubes was obtained from healthy donors from a volunteer donor panel. • 1. […] Incubate for 3 hrs at 37° C., 5% CO2 • 4. Add 10 μl nigericin (Sigma #N7143) (10 μM FAC) to all wells • 5. Incubate for 1 hr at 37° C., 5% CO2 • 6. At the end of the incubation period, spin plates at 300 ×g for 5 mins to pellet cells and remove 20 μl of supernatant and add to 96-well v-bottom plates for IL-1β analysis (note: these plates containing the supernatants can be stored at −80° C. to be analysed at a later date) • 7. IL-1β was measured according to the manufacturer protocol (Perkin Elmer-AlphaLisa IL-1 Kit AL220F-5000) • 8. IC50 data is fitted to a non-linear regression equation (log inhibitor vs response-variable slope 4-parameters)

Counter-ions that a name gives are not always drawn.

T1 sequence (Q96P20 whole entry): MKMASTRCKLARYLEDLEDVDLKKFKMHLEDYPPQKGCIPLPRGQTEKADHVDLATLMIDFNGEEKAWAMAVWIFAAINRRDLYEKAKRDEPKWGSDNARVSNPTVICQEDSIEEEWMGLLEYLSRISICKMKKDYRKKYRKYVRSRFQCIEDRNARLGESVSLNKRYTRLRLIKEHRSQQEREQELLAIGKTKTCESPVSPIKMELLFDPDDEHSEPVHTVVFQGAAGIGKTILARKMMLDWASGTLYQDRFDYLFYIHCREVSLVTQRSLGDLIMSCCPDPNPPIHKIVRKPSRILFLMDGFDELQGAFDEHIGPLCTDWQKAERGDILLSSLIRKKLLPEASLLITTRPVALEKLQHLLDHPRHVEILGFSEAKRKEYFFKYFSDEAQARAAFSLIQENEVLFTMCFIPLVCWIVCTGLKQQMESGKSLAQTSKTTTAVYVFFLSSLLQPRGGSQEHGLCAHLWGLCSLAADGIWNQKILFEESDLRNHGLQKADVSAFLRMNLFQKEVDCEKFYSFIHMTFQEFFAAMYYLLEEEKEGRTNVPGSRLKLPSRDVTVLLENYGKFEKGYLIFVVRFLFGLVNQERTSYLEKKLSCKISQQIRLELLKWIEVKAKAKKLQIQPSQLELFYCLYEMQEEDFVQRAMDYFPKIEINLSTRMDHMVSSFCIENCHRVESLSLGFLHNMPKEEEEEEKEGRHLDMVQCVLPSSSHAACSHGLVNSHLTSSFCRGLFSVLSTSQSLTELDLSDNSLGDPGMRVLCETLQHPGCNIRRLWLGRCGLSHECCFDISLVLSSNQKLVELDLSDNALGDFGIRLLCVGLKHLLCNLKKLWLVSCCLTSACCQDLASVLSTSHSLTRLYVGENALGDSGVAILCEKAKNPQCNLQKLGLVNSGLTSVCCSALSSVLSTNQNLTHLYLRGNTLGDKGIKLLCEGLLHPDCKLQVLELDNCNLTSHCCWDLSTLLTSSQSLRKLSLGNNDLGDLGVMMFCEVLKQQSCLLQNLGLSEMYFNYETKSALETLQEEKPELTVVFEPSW

As to `COc1cc(-n2c(C)nc(C(C)C)c2NC(=O)NS(=O)(=O)c2cc(C(C)(C)O)co2)ccn1` [Example 48, 4-(2-Hydroxypropan-2-yl)-N-((4-isopropyl-1-(2-methoxypyridin-4-yl)-2-methyl-1H-imidazol-5-yl)carbamoyl)furan-2-sulfonamide], the IC50 in test [1] and in test [2] was 250 to 500 nM each time.
With `Cc1cc2c(c(NC(=O)NS(=O)(=O)C3CC3)c1-c1ccnc(OC3CCN(C)CC3)c1)CCC2` [Example 21], the IC50 in test [1] and in test [2] was not above 250 nM in each case.
Turning to `COc1cc(-c2c(C3CC3)cc3c(c2NC(=O)NS(C)(=O)=O)CCC3)ccn1` [Example 34], the results for the IC50 in test [1] and in test [2] were not above 250 nM and 1000 to 2000 nM, respectively.
Taken in the same sequence, the figures for `Cc1cc2c(c(NC(=O)NS(C)(=O)=O)c1-c1ccnc(OC3CCCCC3)c1)CCC2` [Example 16] were not above 250 nM and 1000 to 2000 nM.
In the same order, the values of `COc1cc(-c2c(F)c(F)cc(C(C)C)c2NC(=O)NS(C)(=O)=O)ccn1` [Example 33] are 500 to 1000 nM and 1000 to 2000 nM.
For `COc1cc(-c2c(C)c(F)cc(C(C)C)c2NC(=O)NS(=O)(=O)c2ccn(C3CC3)n2)ccn1` [Example 29], the IC50 in test [1] was not above 250 nM; in test [2] it was 1000 to 2000 nM.
In the same order, the values of `Cc1cc2c(c(NC(=O)NS(=O)(=O)c3ccccc3)c1-c1ccnc(OC3CCN(C)CC3)c1)CCC2` [Example 19] are not above 250 nM and 500 to 1000 nM.
Taken in the same sequence, the figures for `COc1cc(-c2c(C)cc3c(c2NC(=O)NS(=O)(=O)c2ccccc2)CCC3)ccn1` [Example 11] were not above 250 nM and 1000 to 2000 nM.
In the same order, the values of `CCS(=O)(=O)NC(=O)Nc1c2c(cc(C)c1-c1ccnc(OC)c1)CCC2` [Example 42] are not above 250 nM and 250 to 500 nM.
For `Cc1cc2c(c(NC(=O)NS(=O)(=O)C(C)(C)C)c1-c1ccnc(OC3CCN(C)CC3)c1)CCC2` [Example 18], the results for the IC50 in test [1] and in test [2] were not above 250 nM and 2000 to 5000 nM, respectively.
For `CCc1c(F)cc(C(C)C)c(NC(=O)NS(C)(=O)=O)c1-c1ccnc(OC)c1` [Example 38], the IC50 in test [1] lay in the range of 250 to 500 nM; in test [2], 1000 to 2000 nM.
For the molecule `Cc1cc2c(c(NC(=O)NS(C)(=O)=O)c1-c1ccnc(OC(F)F)c1)CCC2` [Example 3], the IC50 in test [1] is not above 250 nM; in test [2] it was 500 to 1000 nM.
Taken in the same sequence, the figures for `[2H]C([2H])([2H])Oc1cc(-c2c(C)cc3c(c2NC(=O)NS(C)(=O)=O)CCC3)ccn1` [Example 10] were not above 250 nM and 250 to 500 nM.
In the same order, the values of `Cc1cc2c(c(NC(=O)NS(C)(=O)=O)c1-c1ccnc(OC3CC3)c1)CCC2` [Example 4] are not above 250 nM and 250 to 500 nM.
Turning to `Cc1cc2c(c(NC(=O)NS(=O)(=O)c3ccn(C(C)C)n3)c1-c1ccnc(OC3CCN(C)CC3)c1)CCC2` [Example 44], the IC50 in test [1] is not above 250 nM; in test [2] it was 250 to 500 nM.
In the case of `COc1cc(-c2c(C)cc3c(c2NC(=O)NS(=O)(=O)c2ccn(C4CC4)n2)CCC3)ccn1` [Example 35], the values for the IC50 in test [1] and in test [2] were not above 250 nM and 500 to 1000 nM, respectively.
Taken in the same sequence, the figures for `Cc1cc2c(c(NC(=O)NS(=O)(=O)c3cc(C(C)(C)O)co3)c1-c1ccnc(OC3CCN(C)CC3)c1)CCC2` [Example 45] were not above 250 nM and 500 to 1000 nM.
Regarding `Cc1cc2c(c(NC(=O)NS(C)(=O)=O)c1-c1ccnc(OC3CCN(C)CC3)c1C)CCC2` [Example 20], the IC50 in test [1] and in test [2] was 250 to 500 nM each time.
Consider `Cc1cc(-c2c(C)cc3c(c2NC(=O)NS(C)(=O)=O)CCC3)ccn1` [Example 1, N-((6-Methyl-5-(2-methylpyridin-4-yl)-2,3-dihydro-1H-inden-4-yl)carbamoyl)methanesulfonamide], for which the IC50 in test [1] and in test [2] was 500 to 1000 nM throughout.
On to `COc1cc(-c2c(C)cc3c(c2NC(=O)NS(=O)(=O)C2CC2)CCC3)ccn1` [Example 12], for which the IC50 in test [1] is not above 250 nM; in test [2], 500 to 1000 nM.
Taken in the same sequence, the figures for `[2H]C([2H])([2H])Oc1cc(-c2c(C)c(F)cc(C(C)C)c2NC(=O)NS(C)(=O)=O)ccn1` [Example 8] were 250 to 500 nM and 500 to 1000 nM.
Take `Cc1cc2c(c(NC(=O)NS(C)(=O)=O)c1-c1ccnc(OC3CCN(C)CC3)c1)CCC2` [Example 28]: the IC50 in test [1] and in test [2] was not above 250 nM each time.
For the molecule `COc1cc(-c2c(C)cc3c(c2NC(=O)NS(=O)(=O)N(C)C)CCC3)ccn1` [Example 13], the IC50 in test [1] is not above 250 nM; in test [2] it was 500 to 1000 nM.
In the same order, the values of `Cc1nc(C(C)C)c(NC(=O)NS(=O)(=O)c2ccn(C3CC3)n2)n1-c1ccncc1` [Example 47, 1-Cyclopropyl-N-((4-isopropyl-2-methyl-1-(pyridin-4-yl)-1H-imidazol-5-yl)carbamoyl)-1H-pyrazole-3-sulfonamide] are 250 to 500 nM and 250 to 500 nM.
Regarding `Cc1cc2c(c(NC(=O)NS(C)(=O)=O)c1-c1ccnc(OC3CCOCC3)c1)CCC2` [Example 22], the half-inhibitory concentration (IC50) in test [1] and in test [2] was not above 250 nM each time.
For the molecule `Cc1cc2c(c(NC(=O)NS(C)(=O)=O)c1-c1ccncc1)CCC2` [Example 2], the IC50 was not above 250 nM in test [1] and 250 to 500 nM in test [2].
In the same order, the values of `CCOc1cc(-c2c(C)cc3c(c2NC(=O)NS(C)(=O)=O)CCC3)ccn1` [Example 5] are not above 250 nM and 250 to 500 nM.
In the same order, the values of `Cc1nc(C(C)C)c(NC(=O)NS(=O)(=O)c2cc(C(C)(C)O)co2)n1-c1ccncc1` [Example 46, 4-(2-Hydroxypropan-2-yl)-N-((4-isopropyl-2-methyl-1-(pyridin-4-yl)-1H-imidazol-5-yl)carbamoyl)furan-2-sulfonamide, ammonium salt] are not above 250 nM and not above 250 nM.
Consider `COCC(C)Oc1cc(-c2c(C)cc3c(c2NC(=O)NS(C)(=O)=O)CCC3)ccn1` (centres unmarked) [Example 25], for which the results for the 50% inhibitory concentration (IC50) in test [1] and in test [2] were not above 250 nM and 250 to 500 nM, respectively.
Taken in the same sequence, the figures for `Cc1cc2c(c(NC(=O)NS(C)(=O)=O)c1-c1ccnc(O[C@H]3CC[C@@H](O)CC3)c1)CCC2` [Example 6] were not above 250 nM and not above 250 nM.
For the molecule `COc1cc(-c2c(C)c(F)cc(C(C)C)c2NC(=O)NS(C)(=O)=O)ccn1` [Example 7], the IC50 in test [1] lay in the range of 250 to 500 nM; in test [2], 500 to 1000 nM.
Consider `COc1cc(-c2c(NC(=O)NS(C)(=O)=O)c(C(C)C)cc(F)c2C2CC2)ccn1` [Example 31], for which the IC50 in test [1] is 500 to 1000 nM; in test [2], 1000 to 2000 nM.
Take `Cc1cc2c(c(NC(=O)NS(=O)(=O)N(C)C)c1-c1ccnc(OC3CCN(C)CC3)c1)CCC2` [Example 26]: the IC50 in test [1] and in test [2] was not above 250 nM throughout.
For the molecule `COc1cc(-c2c(C)cc3c(c2NC(=O)NS(C)(=O)=O)CCC3)ccn1` [Example 40, N-((5-(2-Methoxypyridin-4-yl)-6-methyl-2,3-dihydro-1H-inden-4-yl)carbamoyl)methanesulfonamide, sodium salt], the IC50 in test [1] is not above 250 nM; in test [2], 250 to 500 nM.
In the same order, the values of `Cc1cc2c(c(NC(=O)NS(C)(=O)=O)c1-c1ccnc(C#N)c1)CCC2` [Example 36] are 500 to 1000 nM and 500 to 1000 nM.
With `Cc1nc(C(C)C)c(NC(=O)NS(=O)(=O)N(C)C2CCN(C)C2)n1-c1ccncc1` (centres unmarked) [Example 49, 1-(5-Isopropyl-2-methyl-3-(4-pyridyl)imidazol-4-yl)-3-(methyl-(1-methylpyrrolidin-3-yl)sulfamoyl)urea], the IC50 in test [1] lay within 5000 to 10000 nM.

The record behind these values is patent US20220106288A1, “NOVEL SULFONEUREA COMPOUNDS” (INFLAZOME LIMITED, priority 2018, published 2022).
